Test results: patent US20060247321A1, “Abnormal Cannabidiols as agents useful in combination therapy for lowering intraocular pressure” (priority 2005, published 2006)

Experiments:
Assay type in all cases: in vivo
[1] = system: ocular normotensive nonhuman primates (cynomolgus monkeys); assay: Uveoscleral outflow of monkeys treated with abnormal cannabidiol; settings: 0.1%
Excerpt: (§1) Consequently, the intraocular pressure lowering effects of abnormal cannabidiol is anticipated to predominantly involve reduction of aqueous humor formation in humans and nonhuman primates.

[2] = system: Ocular normotensive Beagle dogs; assay: Intraocular pressure by applanation pneumatonometry in conscious dogs; settings: 0.1%, topical to one eye, once daily for five days, vehicle in fellow eye
Protocol: (§2) Intraocular pressure was measured by applanation pneumatonometry in conscious animals. The test compound was administered topically to one eye while vehicle was given to the fellow eye in a masked fashion. Ocular normotensive Beagle dogs (males, females) were dosed once daily for five days. Laser-induced unilaterally ocular hypertensive Cynomolgus monkeys (females) were dosed once daily for 4 days. Student's paired t-test was used for statistical comparisons. Differences were considered statistically significant if the P-value is less than 0.05.

[3] = system: ocular normotensive nonhuman primates (cynomolgus monkeys); assay: Outflow facility of monkeys treated with abnormal cannabidiol; settings: 0.1%
Excerpt: as §1

[4] = system: Laser-induced unilaterally ocular hypertensive Cynomolgus monkeys; assay: Intraocular pressure by applanation pneumatonometry in conscious monkeys; settings: 0.1%, topical to one eye, once daily for 4 days, vehicle in fellow eye
Protocol: as §2

[5] = topically once-daily for 5 days

Abnormal Cannabidiol
Uveosclearal Outflow, Ratio, Treated:Control ([1]; topical once-daily for 5 days vs vehicle, mean ± sem, n = 5 animals): 0.78 ± 0.05 | Uveosclearal Outflow, Treated Eye ([1]; topical once-daily for 5 days, mean ± sem, n = 5 animals): 0.58 ± 0.17 µL/min | effect on uveoscleral outflow compared to baseline and/or contralateral vehicle-treated control eyes [1, 5]: no significant effects | effect on Dog Intraocular Pressure versus time [2]: lowers IOP | Outflow Facility, Ratio, Treated:Control, Treatment ([3]; topical once-daily for 5 days vs vehicle, mean ± sem, n = 6 animals): 0.93 ± 0.09 | Outflow Facility, Treated Eye, Treatment ([3]; topical once-daily for 5 days, mean ± sem, n = 6 animals): 0.57 ± 0.08 ul/min/mm Hg | effect on total outflow facility compared to baseline and/or contralateral vehicle-treated control eyes [3, 5]: no significant effects | effect on Monkey Intraocular Pressure versus time [4]: lowers IOP
